Source: PubChem BioAssay (NCI)
Several values for one entry are separate records, joined by “and”; a condition that tells them apart may be missing. Identical values can stand only once.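 Method: 48-hour compound exposure of cells in 96-well plates, five concentrations, linear interpolation of endpoints. GI50 = concentration required for 50% inhibition of growth. TGI denotes the concentration required for complete inhibition of growth.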

How the values were obtained:
Test in all cases: NCI anticancer screen, dose series, 48 h
HOP-92 NSCLC = test system: HOP-92 NSCLC
MALME-3M melanoma = test system: MALME-3M melanoma
NCI-H23 lung = test system: NCI-H23 lung
NCI/ADR-RES ovarian = test system: NCI/ADR-RES ovarian
PC-3 prostate = test system: PC-3 prostate
RPMI-8226 leukemia = test system: RPMI-8226 leukemia
SF-295 CNS = test system: SF-295 CNS
SK-MEL-5 melanoma = test system: SK-MEL-5 melanoma
SK-OV-3 ovarian = test system: SK-OV-3 ovarian
SNB-19 CNS = test system: SNB-19 CNS

Row | SMILES | GI50 (HOP-92 NSCLC) | TGI (HOP-92 NSCLC) | GI50 (MALME-3M melanoma) | TGI (MALME-3M melanoma) | GI50 (NCI-H23 lung) | TGI (NCI-H23 lung) | GI50 (NCI/ADR-RES ovarian) [µM] | TGI (NCI/ADR-RES ovarian) | GI50 (PC-3 prostate) | TGI (PC-3 prostate) | GI50 (RPMI-8226 leukemia) | TGI (RPMI-8226 leukemia) | GI50 (SF-295 CNS) | TGI (SF-295 CNS) | GI50 (SK-MEL-5 melanoma) | TGI (SK-MEL-5 melanoma) | GI50 (SK-OV-3 ovarian) | TGI (SK-OV-3 ovarian) | GI50 (SNB-19 CNS) | TGI (SNB-19 CNS)
1 | CC(=O)N[C@@H](Cc1ccc(OP(=O)(O)O)cc1)C(=O)N[C@H]1CCC(=O)N2CCC[C@@H](C(=O)NC3CCc4ccccc43)N2C1=O (stereo partly specified) | > 25 µM | > 25 µM | > 25 µM | > 25 µM | > 25 µM | > 25 µM | > 25 | > 25 µM | > 25 µM | > 25 µM | > 25 µM | > 25 µM | > 25 µM | > 25 µM | > 25 µM | > 25 µM | > 25 µM | > 25 µM | > 25 µM | > 25 µM
2 | COC(=O)[C@]12CC[C@@H](C)[C@H](C)[C@@H]1C1=CC[C@@H]3[C@@](C)(CC#N)C4=C(C[C@@]3(C)[C@]1(C)CC2)OC[C@]4(C)C=O | 4.53 µM | 34.7 µM | 4.76 µM | 27.8 µM | 3.88 µM | 40.7 µM | 4.26 | 38.9 µM | 3.31 µM | 73.7 µM | 3.05 µM | 13.6 µM | 13.2 µM | 40.6 µM | 3.3 µM | 11 µM | 4.92 µM | 62.6 µM | 3.77 µM | > 100 µM
3 | O=c1/c(=C\c2ccc(Br)cc2)sc2n1C(c1ccc(Br)cc1)C1=C(N=2)c2ccc3ccccc3c2OCC1 (stereo unspecified) | > 100 µM | > 100 µM | > 100 µM | > 100 µM | > 100 µM | > 100 µM | > 100 | > 100 µM | > 100 µM | > 100 µM | > 100 µM | > 100 µM | > 100 µM | > 100 µM | > 100 µM | > 100 µM | > 100 µM | > 100 µM | > 100 µM | > 100 µM
4 | CCCCOC(=O)c1c(C)[nH]c(/C=C2\N=C(c3ccc[nH]3)C=C2OC)c1C | 0.163 µM | 0.637 µM | 1.16 µM | 2.82 µM | 0.254 µM | 2.6 µM | 0.121 | 2.92 µM | 0.136 µM | > 24.9 µM | 0.175 µM | 2.04 µM | 0.253 µM | 1.32 µM | 0.1 µM | 0.265 µM | 1.45 µM | 14.4 µM | 1.18 µM | > 56.1 µM
5 | CCC(C)C1NC(=O)C(NC(=O)C(CC(C)C)N(C)C(=O)[C@@H]2CC(O)CN2C(=O)[C@H](C)O)C(C)OC(=O)[C@H](Cc2ccc(OC)cc2)N(C)C(=O)[C@@H]2CCCN2C(=O)[C@H](CC(C)C)NC(=O)C(C)C(=O)[C@H](C(C)C)OC(=O)CC1O (stereo partly specified) | 0.0127 µM | 1.99 µM and 0.285 µM | 0.013 µM | 1.07 µM and 0.185 µM |  | 0.172 µM |  | > 100 µM | 0.0603 µM | 1.83 µM and 0.416 µM | 0.0695 µM | 1.77 µM | 0.0268 µM | 2.05 µM and 0.388 µM | < 0.01 µM | 0.445 µM and 0.0574 µM | 0.0209 µM | 1.11 µM and 0.404 µM | < 0.01 µM | 3.39 µM and 0.346 µM
6 | COc1ncc(-c2ccc3nccc(C#CCCCCC(=O)NO)c3c2)cc1NS(=O)(=O)c1ccc(F)cc1F | 0.0156 µM | 0.106 µM | 0.0604 µM | 0.27 µM | 0.984 µM | 13 µM | 3.59 | 30 µM | 0.0545 µM | 4.8 µM | 1.02 µM | 4.79 µM | 0.0701 µM | 2.03 µM | 0.0801 µM | 1.34 µM | 0.035 µM | 0.18 µM | 0.147 µM | 5.98 µM
7 | Nc1cc(N)c2nc(NCCc3ccc(Cl)c(Cl)c3)cnc2c1 | 6.15 µM | 19.5 µM | 3.44 µM | 11.1 µM | 19.9 µM | 45.7 µM | 20.5 | 39.7 µM | 9.32 µM | 21.3 µM | 2.54 µM | 7.81 µM | 15.3 µM | 29.6 µM | 13.8 µM | 27.1 µM | 17.1 µM | 32 µM | 15.8 µM | 30 µM
8 | Nc1nc(N)c2c(n1)CCC(S(=O)(=O)c1ccc3ccccc3c1)C2 (stereo unspecified) |  | > 72.2 µM |  | 42.7 µM |  | > 100 µM |  | > 100 µM |  | > 100 µM |  | > 84.4 µM |  | > 100 µM |  | 19.2 µM |  | > 100 µM |  | > 85.2 µM
9 | CCc1ncc(CO)n1Cc1cccc2ccccc12 |  | > 100 µM |  | > 100 µM |  | > 100 µM |  | > 100 µM |  | > 100 µM |  | > 100 µM |  | > 100 µM |  | > 100 µM |  | > 100 µM |  | > 100 µM
10 | O=C(CN1CCN(C(=O)c2ccco2)CC1)Nc1ccc(Cl)cc1C(=O)c1ccccc1Cl | 4.45 µM | 24.1 µM | 7 µM | 22.2 µM | 10.4 µM | 62.2 µM | 10 | 43.8 µM | 2.75 µM | 16.3 µM | 1.33 µM | 12.1 µM | 3.13 µM | 15.4 µM | 5.34 µM | 18.6 µM | 16.1 µM | 76.7 µM | 12.1 µM | 94.7 µM
11 | O=C(CCN1CCCN(c2cnc3ccccc3n2)CC1)c1csc2ccccc12 | 15.8 µM | 34 µM | 18 µM | 32.1 µM | 20.8 µM | 46.7 µM | 21.3 | 49.5 µM | 21.3 µM | 50.6 µM | 12.6 µM | 41.8 µM | 58 µM | > 100 µM | 16.2 µM | 30 µM | > 100 µM | > 100 µM | 36.7 µM | > 100 µM
12 | CC1[C@@H]2CC=C3[C@H]4CCC5Cc6nc7c(nc6C[C@@]5(C)C4CC(=O)[C@]32CO[C@]12OC(C)(C)CC2O)CC1CC[C@@H]2C3=C[C@H]4O[C@@]5(O[C@@](C)(CO)C[C@@H]5O)C(C)[C@@]4(O)[C@]3(C)[C@@H](O)CC2[C@]1(C)C7 (stereo partly specified) | 0.000668 µM and 0.000454 µM |  | 0.00807 µM and 0.00577 µM | 0.145 µM and 0.0648 µM | 0.00281 µM | 0.275 µM and 0.0672 µM |  | 0.561 µM and > 3.65 µM | 0.000287 µM | 0.0274 µM | 0.000106 µM and < 0.000365 µM | 0.000261 µM and < 0.000365 µM | 0.000124 µM and < 0.000365 µM | 0.000434 µM and < 0.000365 µM | 0.00235 µM and 0.00215 µM | 0.022 µM and 0.146 µM | 0.00138 µM and 0.00234 µM | 0.0239 µM and 0.073 µM | 0.00459 µM and 0.00921 µM | 0.537 µM and 0.443 µM
13 | CN(C)C1CN(C(=O)c2cc(-c3ccc4ncnc(N5CCc6cc(F)c(Cl)cc65)c4c3)cnc2N)C1 | 0.331 µM | 2.17 µM | 0.453 µM | 3.66 µM | 1.25 µM | > 100 µM | 1.71 | > 100 µM | 0.398 µM | > 23 µM | 0.489 µM | 2.7 µM | 1.18 µM | > 100 µM | 1.54 µM | 2.92 µM | 1.17 µM | > 100 µM | 1.65 µM | > 100 µM
14 | CCOc1ccc2c(c1)C(=O)c1c-2n(CCCN=[N+]=[N-])c(=O)c2cc([N+](=O)[O-])ccc12 | 7.95 µM | 46.7 µM | 15.4 µM | 61.5 µM | 0.997 µM | > 100 µM | 3.91 | > 100 µM | 15.1 µM | > 100 µM | 2.25 µM | 31 µM | 4.16 µM | 74.4 µM | 1.48 µM | 4.84 µM | 5.9 µM | 36.2 µM | 4.14 µM | 85.5 µM
15 | Cc1[nH]nc(C(=O)N/N=C/c2ccccc2Cl)c1N=NN(C)C |  | > 100 µM |  | > 100 µM |  | > 100 µM |  | > 27.7 µM |  | > 100 µM |  | > 100 µM |  | > 100 µM |  | > 100 µM |  | > 100 µM |  | > 100 µM
16 | NC1(C(=O)N[C@@H](CCO)c2ccc(Cl)cc2)CCN(c2ncnc3[nH]ccc23)CC1 | 0.167 µM and 0.144 µM | 1.54 µM and 1.53 µM | 0.977 µM and 2.38 µM | > 3.54 µM and 18.7 µM | > 3.45 µM and 13.9 µM | > 100 µM | > 100 | > 100 µM | 0.86 µM and 0.841 µM | > 100 µM | > 2.61 µM and 27.3 µM | > 81.8 µM | 0.455 µM and 0.482 µM | > 5.03 µM and 12.9 µM | > 3.51 µM and 19.1 µM | > 5.59 µM and 62 µM | 0.306 µM and 0.842 µM | > 3.09 µM and 38.5 µM | 1.5 µM and 3.82 µM | > 100 µM
17 | COc1cc(C2CC(c3cccc(Nc4ccnc5cc(Cl)ccc45)c3)=NN2c2ccccc2)cc(OC)c1OC (stereo unspecified) | 3.6 µM | > 100 µM | > 100 µM | > 100 µM | 64.4 µM | > 100 µM | 5.97 | > 100 µM | 1.71 µM | > 100 µM | 5.33 µM | > 100 µM | 3.55 µM | > 100 µM | 4.56 µM | 23.8 µM | > 100 µM | > 100 µM | > 100 µM | > 100 µM
